# From paper PMC4366154, “Easy to Use Plastic Optical Fiber-Based Biosensor for Detection of Butanal” (PLoS ONE, 2015)
# Biological target: T1, porcine odorant-binding protein (pOBP) (Sus scrofa, UniProt P81245)
# T1 construct: recombinant in E. coli BL21-DE3 from pGEX2TK as GST fusion, GST cut off on column with thrombin
# T1 sequence (P81245 1-157): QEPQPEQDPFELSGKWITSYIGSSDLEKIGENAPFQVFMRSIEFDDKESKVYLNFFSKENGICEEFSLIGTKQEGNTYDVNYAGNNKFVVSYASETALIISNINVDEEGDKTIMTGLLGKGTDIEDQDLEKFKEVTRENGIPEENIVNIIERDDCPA
# Experiment: direct fluorescence titration, emission at […] nm
# Conditions: 20 mM Tris-HCl pH 7.8, 1.0 μM pOBP, overnight at 4 °C
smiles,measurement,value
Nc1cccc2cc3ccccc3cc12 [1-amino-anthracene],"direct fluorescence titration, emission at 480 nm",direct titrations using the fluorescent ligand 1-amino-anthracene (AMA)
